According to article PMC11249824 (Clinical and Translational Science, 2024):
Marks after values point to notes of the source that are not given here.

What was measured:
[1] = cited from earlier work
[2] = cited from earlier work; remark: listed apart in the source
CYP3A4 = settings: in vitro, preclinical observation; cited from earlier work
[3] = format: in vivo, healthy male subjects
Safety and tolerability = format: in vivo, healthy male subjects; settings: for Abdominal pain, number of adverse events / Abdominal pain, number of subjects / Diarrhea, number of adverse events / Diarrhea, number of subjects / Headache, number of adverse events / Headache, number of subjects / Nausea, number of adverse events / Nausea, number of subjects / Number of different TEAEs / Number of subjects with at least one TEAE / Somnolence, number of adverse events / Somnolence, number of subjects / Total number of TEAEs: N = 16
ACKR3/CXCR7 = settings: cited from earlier work
[4] = attributed to sequestration by β‐cyclodextrin; cited from earlier work
[5] = up to and including a dose of 200 mg
[6] = Treatment A: single oral 10 mg ACT‐1004‐1239 alone, fed, geometric mean (95% CI), N = 16
[7] = Treatment A (ACT‐1004‐1239 alone)
[8] = Treatment B2 (ACT‐1004‐1239 + itraconazole)

For `O=C(N[C@H]1CCN(CC2CC2)C[C@@H]1C(=O)NC1(c2ncccn2)CC1)c1cc(-c2ccc(F)cc2F)on1` [ACT‐1004‐1239], the “contribution of elimination via M1 to drug's elimination” value ([1]; humans, M1 plus A1 and A2) is given as “approximately 44%”, the “unchanged drug recovered in excreta” value ([1]; oral 14C‐labeled ACT‐1004‐1239) is given as 15% and the “effect of food on exposure” value [2] is given as “no effect of food”. For the same molecule, the “dose dependence of exposure” value ([2]; dose range 1–200 mg) was “dose‐proportional”, the absolute bioavailability ([2]; healthy subjects) was 53% and the volume of distribution ([2]; healthy subjects) was 183 L. The QTc liability [2, 5] was “without QTc liability”, the safety and tolerability [2, 5] was “safe and well‐tolerated” and the “dependency of metabolism on CYP3A4” value (CYP3A4) was 94%. For the same molecule, the “AUC0−t” value [3, 6] was 300 (257, 352) ng * h/mL, the Cmax [3, 6] was 25.6 (21.1, 31.0) ng/mL and the “AUC0−inf” value ([3]; Treatment A: single oral 10 mg ACT‐1004‐1239 alone, fed, geometric mean (95% CI), n = 10) was 326 (279, 380) ^a ng * h/mL. The t max ([3]; Treatment A: single oral 10 mg ACT‐1004‐1239 alone, fed, median (range), N = 16) was 2.00 (0.5, 6.0) h, the “median of differences in t max (90% CI)” value ([3]; Treatment B2 (with itraconazole) vs Treatment A (alone), Hodges‐Lehmann estimate) was 30 min and the “increase of exposure to ACT‐1004‐1239 with itraconazole versus alone” value ([3]; concomitant multiple doses 200 mg itraconazole (CYP3A4 inhibition)) was “up to 2.9 fold”. The “Abdominal pain, number of adverse events” value (Safety and tolerability; [7]) was 0 nAEs, the “Abdominal pain, number of subjects” value (Safety and tolerability; [7]) was 0 n (%) and the “Diarrhea, number of adverse events” value (Safety and tolerability; [7]) was 0 nAEs. The “Diarrhea, number of subjects” value (Safety and tolerability; [7]) was 0 n (%), the “Headache, number of adverse events” value (Safety and tolerability; [7]) was 2 nAEs and the “Headache, number of subjects” value (Safety and tolerability; [7]) was 1 (6.3) n (%). For the same molecule, the “Nausea, number of adverse events” value (Safety and tolerability; [7]) was 2 nAEs, the “Nausea, number of subjects” value (Safety and tolerability; [7]) was 2 (12.5) n (%) and the “Number of different TEAEs” value (Safety and tolerability; [7]) was 3 nAEs. For the same molecule, the “Number of subjects with at least one TEAE” value (Safety and tolerability; [7]) was 3 (18.8) n (%), the “Somnolence, number of adverse events” value (Safety and tolerability; [7]) was 1 nAEs and the “Somnolence, number of subjects” value (Safety and tolerability; [7]) was 1 (6.3) n (%). The “Total number of TEAEs” value (Safety and tolerability; [7]) was 5 nAEs, the “Abdominal pain, number of adverse events” value (Safety and tolerability; [8]) was 1 nAEs and the “Abdominal pain, number of subjects” value (Safety and tolerability; [8]) was 1 (6.3) n (%). For the same molecule, the “Diarrhea, number of adverse events” value (Safety and tolerability; [8]) was 1 nAEs, the “Diarrhea, number of subjects” value (Safety and tolerability; [8]) was 1 (6.3) n (%) and the “Headache, number of adverse events” value (Safety and tolerability; [8]) was 1 nAEs. For the same molecule, the “Headache, number of subjects” value (Safety and tolerability; [8]) was 1 (6.3) n (%), the “Nausea, number of adverse events” value (Safety and tolerability; [8]) was 0 nAEs and the “Nausea, number of subjects” value (Safety and tolerability; [8]) was 0 n (%). For the same molecule, the “Number of different TEAEs” value (Safety and tolerability; [8]) was 3 nAEs, the “Number of subjects with at least one TEAE” value (Safety and tolerability; [8]) was 3 (18.8) n (%) and the “Somnolence, number of adverse events” value (Safety and tolerability; [8]) was 0 nAEs. For the same molecule, the “Somnolence, number of subjects” value (Safety and tolerability; [8]) was 0 n (%), the “Total number of TEAEs” value (Safety and tolerability; [8]) was 3 nAEs and the tolerability (Safety and tolerability; all treatments, 10 mg ACT‐1004‐1239 in absence and presence of itraconazole) was “well‐tolerated”. For the same molecule, the “overall incidence of subjects with TEAEs” value (Safety and tolerability; in each treatment (A and B2)) was 18.8% and the “CXCL12 plasma concentration (target engagement)” value (ACKR3/CXCR7) was “dose‐dependent increase”.
For `O=C(Nc1ccc(OC(F)(F)Cl)cc1)c1cnc(N2CC[C@@H](O)C2)c(-c2ccn[nH]2)c1` [asciminib], the “decrease of exposure when given concomitantly with an itraconazole solution” value [4] is listed as “approximately 50%”.
